Laboratory results from patent publication US20020010207A1, “Tropane analogs and methods for inhibition of monoamine transport” (priority 2000, published 2002).
Several values for one entry are separate records, joined by “and”; a condition that tells them apart may be missing. Identical values can stand only once. Like-named read-outs stand apart in the source and are kept apart here.

Columns and labels:
[1] = target: T1, dopamine transporter (DAT) (Macaca fascicularis, UniProt Q9GJT6); assay: Dopamine transporter assay: inhibition of 3H-WIN35,428 binding, caudate-putamen membranes; parameters: species or system cynomolgus monkey (Macaca fascicularis); conditions: for Selectivity DAT V. SERT: ratio of SERT IC50 to DAT IC50
T1 construct: The caudate-putamen will be dissected from coronal slices; from tissue; host or cells: cynomolgus monkey caudate-putamen membranes

[2] = system: dopamine transporter (DAT); conditions: potency ratio versus (1S)-(+)-cocaine; cited from earlier work
[3] = target: T2, serotonin transporter (SERT) (Macaca fascicularis, UniProt A7KAX8); assay: Serotonin transporter assay: inhibition of 3H-citalopram binding, caudate-putamen membranes; parameters: species or system cynomolgus monkey (Macaca fascicularis)
T2 construct: The serotonin transporter is assayed in caudate-putamen membranes; from tissue; host or cells: cynomolgus monkey caudate-putamen membranes
Procedure: It is also important to measure the selectivity of the candidate of the dopamine compared with the serotonin transporter. The serotonin transporter is also detectable in the striatum, the brain region with the highest density of dopamine neurons and in brain regions surrounding the striatum. […] Therefore, a measure of probe affinity of the serotonin transport is conducted by assays paralleling the dopamine transporter assays.
Brain tissue from adult male and female cynomolgus monkeys (Macaca fascicularis) is stored at −85° C. in the primate -brain bank at the New England Regional Primate Research Center. […] Membranes are prepared as described previously. Briefly, the caudate-putamen is homogenized in 10 volumes (w/v) of ice-cold Tris.HCl buffer (50 mM, pH 7.4 at 4° C.) and centrifuged at […] for 20 min in the cold. The resulting pellet is suspended in 40 volumes of buffer, and the entire procedure is repeated twice.
The serotonin transporter is assayed in caudate-putamen membranes using conditions similar to those for the dopamine transporter. […] The 2 h incubation (0-4° C.) is initiated by addition of membranes and terminated by rapid filtration over Whatman GF/B glass fiber filters pre-soaked in 0.1% polyethyleneimine. The filters are washed twice with 5 ml Tris.HCl buffer (50 mM) and the remaining steps are carried out as described above. […] Specific binding is the difference between the two values.
Data are analyzed by EBDA and LIGAND computer software (Elsevier-Biosoft, UK) Final estimates of IC50 and nH values are computed by the EBDA program. Baseline values for the individual drugs are established by computer analysis using the baseline drugs as guide. The LIGAND program provides final parameter estimates of the novel compounds by iterative non-linear curve-fitting and evaluation of one- or two-component binding models.

[4] = Table 1, inhibition of 3H-WIN35,428 binding, cynomolgus monkey caudate-putamen, read-out: IC50 (nM DAT)
[5] = Table 1, inhibition of 3H-citalopram binding, cynomolgus monkey caudate-putamen, read-out: IC50 (nM SERT)

T1 sequence (Q9GJT6 whole entry): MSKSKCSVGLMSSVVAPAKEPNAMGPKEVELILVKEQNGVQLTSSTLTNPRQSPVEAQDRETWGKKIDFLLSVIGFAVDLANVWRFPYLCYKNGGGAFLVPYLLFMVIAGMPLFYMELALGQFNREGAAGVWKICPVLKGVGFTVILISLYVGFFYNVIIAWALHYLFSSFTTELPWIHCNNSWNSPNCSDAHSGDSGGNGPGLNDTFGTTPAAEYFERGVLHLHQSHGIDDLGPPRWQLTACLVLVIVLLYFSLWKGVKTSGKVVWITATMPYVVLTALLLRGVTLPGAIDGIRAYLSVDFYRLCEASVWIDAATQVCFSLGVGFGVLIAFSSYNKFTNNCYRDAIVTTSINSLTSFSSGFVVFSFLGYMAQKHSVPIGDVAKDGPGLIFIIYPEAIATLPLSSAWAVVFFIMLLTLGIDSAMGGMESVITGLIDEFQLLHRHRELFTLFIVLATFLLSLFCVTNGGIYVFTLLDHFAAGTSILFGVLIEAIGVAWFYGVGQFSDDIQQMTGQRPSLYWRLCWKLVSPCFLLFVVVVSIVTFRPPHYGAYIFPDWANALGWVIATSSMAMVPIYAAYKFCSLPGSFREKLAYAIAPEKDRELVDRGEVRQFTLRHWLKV
T2 sequence (A7KAX8 1-630): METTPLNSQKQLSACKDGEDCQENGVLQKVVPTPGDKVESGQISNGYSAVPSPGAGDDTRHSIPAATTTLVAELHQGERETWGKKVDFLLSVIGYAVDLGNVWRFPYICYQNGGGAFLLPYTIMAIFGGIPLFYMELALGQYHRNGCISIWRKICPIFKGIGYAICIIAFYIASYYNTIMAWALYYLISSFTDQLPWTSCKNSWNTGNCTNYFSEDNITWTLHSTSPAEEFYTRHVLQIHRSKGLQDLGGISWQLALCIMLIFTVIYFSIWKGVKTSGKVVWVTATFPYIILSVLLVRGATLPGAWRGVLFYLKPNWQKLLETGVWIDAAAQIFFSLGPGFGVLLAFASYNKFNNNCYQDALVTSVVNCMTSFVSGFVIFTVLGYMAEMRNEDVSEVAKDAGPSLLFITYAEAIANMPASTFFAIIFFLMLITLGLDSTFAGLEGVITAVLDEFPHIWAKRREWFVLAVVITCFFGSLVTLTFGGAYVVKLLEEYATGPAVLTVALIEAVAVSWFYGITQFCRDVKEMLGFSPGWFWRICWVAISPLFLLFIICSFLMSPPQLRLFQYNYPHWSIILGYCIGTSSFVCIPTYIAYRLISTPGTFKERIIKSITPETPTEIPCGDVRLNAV

SMILES: COC(=O)[C@H]1[C@@H](c2ccc(Cl)c(Cl)c2)C[C@@H]2CC[C@H]1N2C [(1R)-3β-(3,4-di-chlorophenyl)-tropane-2β-carboxylic acid methyl ester, reference compound]
- IC50 [1]: 1.09 nM
- Selectivity DAT V. SERT ([1]; Table 1): 2

SMILES: COC(=O)[C@H]1[C@@H](OC(=O)c2ccccc2)C[C@@H]2CC[C@H]1N2C [(1R)-(−)-cocaine]
- binds at the dopamine transporter more potently than the unnatural isomer (1S)-(+)-cocaine [2]: about 200 fold

SMILES: COC(=O)C1C(c2ccc(Cl)c(Cl)c2)CC2CC(O)C1N2 (stereo not drawn) [Compound 10, 2β-Carbomethoxy-3-(3,4-dichlorophenyl)-7-hydroxy-8-azabicyclo(3.2.1)octane]
- IC50 [1, 4]: 1 nM
- IC50 [3, 5]: 1450 nM

SMILES: COC(=O)C1C(c2ccc(Cl)c(Cl)c2)CC2CC(O)C1N2C (stereo not shown) [Compound 11]
- IC50 [1, 4]: 1 nM
- Selectivity DAT V. SERT ([1]; Table 1): 20
- IC50 [3, 5]: 20 nM

SMILES: COC(=O)C1C(c2ccc(Cl)c(Cl)c2)CC2CC(OC)C1N2 (stereo not drawn) [Compound 14, 2β-carbomethoxy-3β-(3,4-dichlorophenyl)-7-methoxy-8-azabicyclo(3.2.1)octane]
- IC50 [1, 4]: 86 nM
- Selectivity DAT V. SERT ([1]; Table 1): 10
- IC50 [3, 5]: 884 nM

SMILES: COC(=O)C1C(c2ccc(Cl)c(Cl)c2)CC2CC(OC)C1N2 (stereo not drawn) [Compound 15, 2β-Carbomethoxy-3-(3,4-dichlorophenyl)-7-methoxy-8-azabicyclo(3.2.1)octane]
- IC50 [1, 4]: 92 nM
- Selectivity DAT V. SERT ([1]; Table 1): 57
- IC50 [3, 5]: 5220 nM

SMILES: COC(=O)C1=C(c2ccc(Cl)c(Cl)c2)CC2CC[C@H]1O2 [Compound 47e, (1R)-2-Carbomethoxy-3-(3,4-dichlorophenyl)-8-oxabicyclo(3.2.1)-2-octene]
- IC50 ([1]; read-out: IC50 (nM) DAT): 4.6 nM
- IC50 ([3]; read-out: IC50 (nM) SERT): 2120 nM

SMILES: COC(=O)C1=C(c2ccc(Cl)c(Cl)c2)CC2CC[C@@H]1O2 [Compound 47f, (1S)-2-Carbomethoxy-3-(3,4-dichlorophenyl)-8-oxabicyclo(3.2.1)-2-octene]
- Selectivity DAT V. SERT ([1]; Table 2, 2,3-enes): 800 and 802
- IC50 ([1]; read-out: IC50 (nM) DAT): 58.2 nM
- IC50 ([3]; read-out: IC50 (nM) SERT): 46700 nM

SMILES: COC(=O)C1=C(c2ccc(Cl)c(Cl)c2)CC2CCC1N2C (stereo not shown) [Compound 48]
- IC50 [1]: 1.1 nM
- Selectivity DAT V. SERT ([1]; Table 2, 2,3-enes): 790
- IC50 [3]: 867 nM
